Here are results for one molecule from paper PMC9814457 (2022).

In this experiment the test system is QDJ1 (model quadruplex-duplex junction) (DNA, G4) GGTTGGCGCGAAGCATTCGCGGGTTGG
Description: NMR ligand protection (53-compound library, HSQC difference). Particulars: 20 mM KCl; 20 mM K2HPO4, pH 7.0; 30 μM DNA.

Take `NCc1cc(CN)cc(CN)c1`: the binding result is listed as “yes”.
